According to paper PMC10454396 (International Journal of Molecular Sciences, 2023):
Values after ≈ are worked out from the molar mass of the structure shown. Read-outs that look alike come from different tables or passages of the source.

How the values were obtained:
[1] = test system: Staphylococcus aureus Newman WT; experiment: MIC, broth microdilution, S. aureus Newman wild type; type: cell-based
Protocol: (§1) Cefazolin was obtained from Acros Organics. Ciprofloxacin hydrochloride, linezolid and vancomycin hydrochloride were obtained from Sigma-Aldrich (St. Louis, MO, USA). Tetracycline hydrochloride was obtained from Alfa Aesar. Sorangicin A was provided by HZI, Braunschweig. Stock solutions were prepared in Milli-Q water or dimethyl sulfoxide (DMSO, Sigma-Aldrich). Minimum inhibitory concentrations (MICs) were determined in cation-adjusted Mueller-Hinton broth (MHB2) using the broth microdilution method as recommended by the Clinical and Laboratory Standards Institute (CLSI). The MIC was defined as the lowest concentration of the antibiotic causing complete inhibition of visible growth of the microorganism (CLSI, 2017).
(§2) 1. In vitro characterization of mCherry expressing Staphylococcus aureus Newman
(§3) 1.1 Minimum inhibitory concentration
(§4) Table S1. Antibiotic susceptibility profile of Staphylococcus aureus Newman. WT: wild type. […]

[2] = test system: Staphylococcus aureus Newman mCherry; experiment: MIC, broth microdilution, mCherry-expressing S. aureus Newman; type: cell-based
Protocol: as §1, §2, §3, §4

[3] = test system: mCherry-expressing S. aureus Newman; experiment: Zebrafish embryo model of S. aureus yolk infection, antibiotic treatment efficacy; type: in vivo, Staphylococcus aureus
Protocol: With the aim to study the in vivo efficacy of drugs, 30 hpf zebrafish embryos were infected with 50 CFU of mCherry-expressing S. aureus Newman. Embryos were then left to recover from injection for two hours and subsequently treated with various reference antibiotics. Antibiotic treatment was performed via bath water immersion as well as via microinjection into the yolk (local treatment) and the caudal vein (systemic treatment) to study whether differences in in vivo activity exist between the three administration routes. Survival was assessed daily until 120 hpf. Additionally, the infection was visualized and quantified by means of fluorescence microscopy at 24 h post treatment (hpt). At the end of every experiment, living embryos (and dead embryos, if possible) were homogenized to determine the remaining bacterial count. Five approved antibiotics from different classes were assessed in vivo. The chosen drugs ought to differ in physicochemical properties, such as molecular weight and polarity, in order to detect a pattern between successful administration routes and the physicochemical properties of the drug. Prior to efficacy assessment, drug-mediated toxicity in zebrafish embryos was investigated using the same administration routes (Figure S3). For microinjection, a fixed dose of 20 to 30 mg/kg was used for each antibiotic. The concentration for bath water immersion was based on the minimum inhibitory concentration (MIC) and the maximum tolerated concentration (MTC) of the drug, whereby it is generally recommended to use 50- to 100-fold the antibacterial MIC to see a positive effect.
Pulled glass capillaries for microinjection (Table S2) were prepared using a micropipette puller (P-1000, Sutter Instrument). Dechorionated and anaesthetized embryos were infected with 50 colony-forming units (CFU) of mCherry-expressing S. aureus Newman by microinjection into the yolk sac at 30 hpf. In order to confirm bacterial numbers, an equal volume of bacterial cells was ejected onto Tryptic Soy Agar (TSA) supplemented with 10 µg/mL chloramphenicol before and after the injection. Antibiotic treatment was performed two hours post infection (hpi) via three different administration routes, namely bath water immersion and microinjection into the yolk sac as well as the caudal vein (CV). The infection procedure and treatment of infected embryos are described in details in the supplementary materials (Table S3).
Embryos were transferred individually to microcentrifuge tubes and washed at least three times with sterile PBS. 200 µL of sterile PBS were added and embryos were mechanically homogenized using a micropestle (Carl Roth, Karlsruhe, Germany). 800 µL of sterile PBS were added to reach a final volume of 1 mL. The homogenates were diluted and plated on tryptic soy agar (TSA). CFU counts were determined after 24 h of incubation at 37 °C.
Embryos were placed in a black 96-well plate (Falcon; Thermo Fisher, Dreieich, Germany) and cryo-anaesthetized by submersion into ice water. Images for quantitative fluorescence analysis were acquired using the following equipment: a fluorescence stereo microscope (M205 FA, Leica Microsystems, Wetzlar, Germany) in combination with a fluorescence illuminator (X-Cite, 200DC, Excelitas Technologies, Waltham, MA, USA) and a microscope camera (DFC7000 T, Leica Microsystems). Quantification of fluorescence was performed using Fiji ImageJ version 2.1.0. Fluorescent Integrated Density (FID) was determined by counting the number of pixels with fluorescence intensity greater than the threshold (10) and multiplying the count with its mean intensity. For confocal imaging, embryos were anaesthetized through immersion in tricaine (945 µM, Sigma-Aldrich) and immobilized in 1.2% low-melting agarose in a flat-bottom 96-well plate. Confocal images and time-lapse series were acquired using the Celldiscoverer 7 with LSM 900 (Zeiss) together with the 5×/0.35 Plan-APOCHROMAT objective.
2. […]

zebrafish embryos = experiment: Toxicity of antimicrobials on zebrafish embryos; type: in vivo, Danio rerio; settings: bath water immersion 50x MIC, no bacteria recovered from dead embryos
Protocol: Toxicity of antibiotics was assessed by aquatic exposure and microinjection. For evaluation of the maximum tolerated concentration (MTC) by aquatic exposure, embryos were dechorionated at 30 hpf and placed in a flat-bottom 96-well plate (Sarstedt) with one embryo per well. Excess medium was removed and 150 µL of compound dilutions (in 0.3× Danieau’s, maximum of 1% DMSO) were added. For each antibiotic, a range of concentrations was investigated. Ten embryos were used per concentration and ten additional embryos incubated in fish medium without any antibiotic served as negative control. Microinjection of antibiotics into the caudal vein (CV) and the yolk sac was performed as described earlier. PBS-injected embryos served as negative control. Exposed embryos were maintained at 28 °C throughout the whole experiment. Embryos were monitored daily under a stereo microscope (Stemi 508, Zeiss) in order to record survival as well as anomalies, pigmentation, heartbeat and locomotor responses. An embryo was considered dead when no heart beat could be observed.

[4] = S. aureus Newman WT, MHB2 broth microdilution
[5] = S. aureus Newman mCherry, MHB2 broth microdilution
[6] = bath water immersion 50-100x MIC
[7] = caudal vein microinjection 20-30 mg/kg, 2 hpi
[8] = yolk microinjection 20-30 mg/kg, 2 hpi
[9] = Staphylococcus aureus, S. aureus Newman WT, MHB2 broth microdilution, read-out: MIC

NC[C@H]1O[C@H](O[C@H]2[C@H](O)[C@@H](O[C@H]3O[C@H](CO)[C@@H](O)[C@H](N)[C@H]3O)[C@H](N)C[C@@H]2N)[C@H](O)[C@@H](O)[C@@H]1O [kanamycin]
MIC [1, 4]: 4 µg/mL (≈ 8.26 µM) | MIC [2, 5]: 4 µg/mL (≈ 8.26 µM)

Cc1nnc(SCC2=C(C(=O)O)N3C(=O)[C@@H](NC(=O)Cn4cnnn4)[C@H]3SC2)s1 [cefazolin]
bacterial fluorescence (FID) at 24 hpt ([3]; bath water immersion): FID values equal to the positive control | effect on survival of infected embryos [3, 6]: did not show any effect | bacteria recovered (CFU plating) at 120 hpf ([3]; caudal vein microinjection): no colonies were recovered | bacterial fluorescence (FID) at 24 hpt ([3]; caudal vein microinjection): No fluorescence was observed | effect on survival of infected embryos [3, 7]: exhibit treatment efficacy | bacteria recovered (CFU plating) at 120 hpf ([3]; yolk microinjection): no colonies were recovered | bacterial fluorescence (FID) at 24 hpt ([3]; yolk microinjection): No fluorescence was observed | effect on survival of infected embryos [3, 8]: exhibit treatment efficacy

CN[C@H](CC(C)C)C(=O)N[C@H]1C(=O)N[C@@H](CC(N)=O)C(=O)N[C@H]2C(=O)N[C@H]3C(=O)N[C@H](C(=O)N[C@H](C(=O)O)c4cc(O)cc(O)c4-c4cc3ccc4O)[C@H](O)c3ccc(c(Cl)c3)Oc3cc2cc(c3O[C@@H]2O[C@H](CO)[C@@H](O)[C@H](O)[C@H]2O[C@H]2C[C@](C)(N)[C@H](O)[C@H](C)O2)Oc2ccc(cc2Cl)[C@H]1O [vancomycin]
MIC ([1]; Staphylococcus aureus, NEWMAN): 2 µg/mL (≈ 1.38 µM) | MIC ([2]; Staphylococcus aureus, NEWMAN): 2 µg/mL (≈ 1.38 µM) | bacterial fluorescence (FID) at 24 hpt ([3]; bath water immersion): no reduction in bacterial fluorescence | effect on survival of infected embryos [3, 6]: No increased survival | bacterial fluorescence (FID) at 24 hpt ([3]; caudal vein microinjection): no reduction in bacterial fluorescence | effect on survival of infected embryos [3, 7]: No increased survival | bacterial fluorescence (FID) at 24 hpt ([3]; yolk microinjection): no development of fluorescence | effect on survival of infected embryos [3, 8]: prevented embryo death | survival ([3]; yolk microinjection (local treatment) 2 hpi, 50 CFU yolk infection): 90% | colonies recovered at the end of the experiment ([3]; yolk-treated embryos): 0–2500 CFU

teicoplanin
MIC [1, 4]: 1 µg/mL | MIC [2, 5]: 1 µg/mL

NC[C@H]1O[C@H](O[C@H]2[C@H](O)[C@@H](O[C@H]3O[C@H](CO)[C@@H](O)[C@H](N)[C@H]3O)[C@H](N)C[C@@H]2N)[C@H](N)C[C@@H]1O [tobramycin]
MIC [1, 9]: 0.5 µg/mL (≈ 1.07 µM)

CNC(C)C1CCC(N)C(OC2C(N)CC(N)C(OC3OCC(C)(O)C(NC)C3O)C2O)O1 (centres unmarked) [gentamicin]
MIC [1, 9]: 0.5 µg/mL (≈ 1.05 µM)

CC[C@H]1OC(=O)[C@H](C)[C@@H](O[C@H]2C[C@@](C)(OC)[C@@H](O)[C@H](C)O2)[C@H](C)[C@@H](O[C@@H]2O[C@H](C)C[C@H](N(C)C)[C@H]2O)[C@](C)(O)C[C@@H](C)C(=O)[C@H](C)[C@@H](O)[C@]1(C)O [erythromycin]
MIC [1, 9]: 0.25 µg/mL (≈ 0.341 µM)

CN(C)[C@@H]1C(O)=C(C(N)=O)C(=O)[C@@]2(O)C(O)=C3C(=O)c4c(O)cccc4[C@@](C)(O)[C@H]3C[C@@H]12 [tetracycline]
MIC [1, 9]: 0.25 µg/mL (≈ 0.563 µM) | bacterial fluorescence (FID) at 24 hpt ([3]; bath water immersion): FID values equal to the positive control | effect on survival of infected embryos [3, 6]: did not show any effect | bacteria recovered (CFU plating) at 120 hpf ([3]; caudal vein microinjection): no colonies were recovered | bacterial fluorescence (FID) at 24 hpt ([3]; caudal vein microinjection): No fluorescence was observed | effect on survival of infected embryos [3, 7]: exhibit treatment efficacy | bacteria recovered (CFU plating) at 120 hpf ([3]; yolk microinjection): no colonies were recovered | bacterial fluorescence (FID) at 24 hpt ([3]; yolk microinjection): No fluorescence was observed | effect on survival of infected embryos [3, 8]: exhibit treatment efficacy

O=C(O)c1cn(C2CC2)c2cc(N3CCNCC3)c(F)cc2c1=O [ciprofloxacin]
MIC [1, 9]: 0.25 µg/mL (≈ 0.754 µM) | bacterial fluorescence (FID) at 24 hpt ([3]; bath water immersion): a decrease in FID values | effect on survival of infected embryos [3, 6]: slightly prolong survival | embryos died due to infection ([3]; bath water immersion, 50 CFU yolk infection): more than 80% | bacteria recovered (CFU plating) at 120 hpf ([3]; caudal vein microinjection): no colonies were recovered | bacterial fluorescence (FID) at 24 hpt ([3]; caudal vein microinjection): No fluorescence was observed | effect on survival of infected embryos [3, 7]: exhibit treatment efficacy | bacteria recovered (CFU plating) at 120 hpf ([3]; yolk microinjection): no colonies were recovered | bacterial fluorescence (FID) at 24 hpt ([3]; yolk microinjection): No fluorescence was observed | effect on survival of infected embryos [3, 8]: exhibit treatment efficacy

CC(=O)NC[C@H]1CN(c2ccc(N3CCOCC3)c(F)c2)C(=O)O1 [linezolid]
MIC [1, 9]: 2 µg/mL (≈ 5.93 µM) | bacterial fluorescence (FID) at 24 hpt ([3]; bath water immersion): No fluorescence was recorded | effect on survival of infected embryos [3, 6]: significantly (p < 0.0001) prolonged the survival | recovery from infection (fluorescence microscopy and CFU plating) ([3]; bath water immersion 50x MIC): full recovery from infection | survival ([3]; bath water immersion, treatment 2 hpi, 50 CFU yolk infection, until 120 hpf): 90% | bacterial fluorescence (FID) at 24 hpt ([3]; caudal vein microinjection): No fluorescence was recorded | effect on survival of infected embryos [3, 7]: significantly (p < 0.0001) prolonged the survival | mortality rate ([3]; yolk and caudal vein injection 2 hpi, 50 CFU yolk infection): greater than 75% | bacterial numbers ([3]; yolk and caudal vein injection, embryos with lethal infection): exceeding 10^5 CFU/embryo | bacterial fluorescence (FID) at 24 hpt ([3]; yolk microinjection): No fluorescence was recorded | effect on survival of infected embryos [3, 8]: significantly (p < 0.0001) prolonged the survival | cause of death of embryos in immersion group (zebrafish embryos): potential toxic effect

O=C(N[C@H](CO)[C@H](O)c1ccc([N+](=O)[O-])cc1)C(Cl)Cl [chloramphenicol]
MIC [1, 9]: 8 µg/mL (≈ 24.8 µM) | MIC ([2]; Staphylococcus aureus, NEWMAN): 64 µg/mL (≈ 198 µM)

CC[C@H]1OC(=O)[C@H](C)[C@@H](O[C@H]2C[C@@](C)(OC)[C@@H](O)[C@H](C)O2)[C@H](C)[C@@H](O[C@@H]2O[C@H](C)C[C@H](N(C)C)[C@H]2O)[C@](C)(OC)C[C@@H](C)C(=O)[C@H](C)[C@@H](O)[C@]1(C)O [clarithromycin]
MIC [1, 9]: 0.25 µg/mL (≈ 0.334 µM)

CCCCCCCCCC(=O)N[C@@H](Cc1c[nH]c2ccccc12)C(=O)N[C@H](CC(N)=O)C(=O)N[C@@H](CC(=O)O)C(=O)N[C@@H]1C(=O)NCC(=O)N[C@@H](CCCN)C(=O)N[C@@H](CC(=O)O)C(=O)N[C@H](C)C(=O)N[C@@H](CC(=O)O)C(=O)NCC(=O)N[C@H](CO)C(=O)N[C@@H]([C@H](C)CC(=O)O)C(=O)N[C@@H](CC(=O)c2ccccc2N)C(=O)O[C@@H]1C [daptomycin]
MIC [1, 9]: 2 µg/mL (≈ 1.23 µM)

CC1(C)S[C@@H]2[C@H](NC(=O)[C@H](N)c3ccccc3)C(=O)N2[C@H]1C(=O)O [ampicillin]
MIC [1, 9]: 0.125 µg/mL (≈ 0.358 µM) | MIC ([2]; Staphylococcus aureus, NEWMAN): 0.5 µg/mL (≈ 1.43 µM)
